Measured values from US7713994B2 (Wyeth LLC, priority 2005, dated 2010).
Like-named read-outs stand apart in the source and are kept apart here.

Assays:
[1] = molecular target: T1, cyclin E/CDK2 enzyme (Homo sapiens, UniProt P24941); experiment: CDK2 ELISA kinase assay (phospho-Rb ser 795 detection); type: biochemical
T1 construct: made in house; host or cells: Sf9 insect cells, recombinant baculovirus
Description: (§1) • 1. High-binding ELISA microtiter plates (Costar) were coated with 40 μl of the kinase substrate (GST fusion of C-terminal fragment of the retinoblastoma susceptibility gene product) diluted to 10 μg/ml in tris-buffered saline (TBS), overnight at 4° C. • 2. Non-specific binding sites were blocked for 1 hour at 4° C. with Superblock in TBS (Pierce), and the plates rinsed with water. • 3. For the screen, 1.5 μl of test compound (200 μg/ml stock in 20% DMSO/20 mM HEPES, pH 7.5) was added to each well. Final dose of the test compound in the assay was 10 ug/ml. […] The kinase reaction (30 μl) was dispensed into each well. Reactions contained 200 μM ATP, 0.5 mg/ml bovine serum albumin (BSA; Sigma), and 0.5 μl partially purified cyclin D1/cdk 4 enzyme*. The enzyme complex is expressed in insect cells (Sf9) infected with recombinant baculovirus and partially purified using ammonium sulfate fractionation. Reaction volumes were adjusted to 30 μl with kinase assay buffer (50 mM HEPES, pH 7.5, 10 mM MgCl2, 5% glycerol, 10 mM 2-mercaptoethanol). • *: For CDK2 assay, 1.0 μl cyclin E/CDK2 enzyme (diluted 1:1000 in kinase assay buffer) was used. The enzyme is isolated from insect cells (Sf9) infected with recombinant baculovirus and partially purified using ammonium sulfate fractionation. For CDK1 assay, 0.08 μl cyclin B/CDK1 enzyme [New England BioLabs; the enzyme is isolated from insect cells (Sf9) infected with recombinant baculovirus carrying human cdc 2 and human cyclin B] was used.
(§2) […] • 5. Plates were incubated at 30° C. for 1 hour. • 6. The reaction mixture was removed by aspiration and replaced with 250 μl TBS containing 0.1% Tween-20 and 5% nonfat dry milk (blocking buffer). The plates were incubated at 4° C. for 1 hour. • 7. The blocking buffer was removed and replaced with 50 μl of the primary antibody [anti-phospho-Rb ser 795 (New England BioLabs) diluted 1:1000 in blocking buffer]. Incubation was at 4° C. for 16-20 hours. • 8. The wells were rinsed 3 times with 250 μl of TBS containing 0.1% Tween-20 followed by the addition of 50 μl of secondary antibody [anti-rabbit IgG conjugated to horseradish peroxidase (Amersham Life Science) diluted 1:1000 in blocking buffer]. • 9. After a 1 hour incubation at room temperature, the wells were rinsed 3 times with 250 μl of TBS/0.1% Tween 20. • 10. TMB (3,3′,5,5′-tetramethylbenzidine dihydrochloride) substrate solution (100 μl; Pierce) was added to each well and the color development reaction allowed to proceed 5-10 minutes at room temperature with shaking. The reaction was stopped by the addition of 2N sulfuric acid (100 μl) and the absorbance values read at 450 nm in a microplate reader (Molecular Devices). Analysis of Results: • 1. The percentage of the absorbance value in wells containing the test compound relative to control wells (no test agent) was determined. • 2. IC50 values of selected compounds were determined from inhibition curves, after subtracting background values (no substrate).

[2] = molecular target: T2, cyclin D1/cdk 4 enzyme (Homo sapiens, UniProt P11802); experiment: CDK4 ELISA kinase assay (phospho-Rb ser 795 detection); type: biochemical
T2 construct: made in house; host or cells: Sf9 insect cells, recombinant baculovirus
Procedure, shortened: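 GST-Rb C-terminal fragment coated on plates; partially purified Sf9-expressed cyclin D1/CDK4, cyclin E/CDK2 or cyclin B/CDK1 with 200 μM ATP, pH 7.5 HEPES/MgCl2 buffer, 1 h at 30 °C; screen compound final 10 μg/ml. Phospho-Rb Ser795 detected by antibody ELISA (TMB, A450); % of control, IC50 from background-subtracted inhibition curves.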

[3] = molecular target: T3, cyclin B/CDK1 enzyme (Homo sapiens, UniProt P06493); experiment: CDK1 ELISA kinase assay (phospho-Rb ser 795 detection); type: biochemical
T3 construct: purchased New England BioLabs; host or cells: Sf9 insect cells, recombinant baculovirus
Description: as §1, §2

[4] = system: LoVo; experiment: Cytotoxicity assay (SRB), LoVo; type: cell-based; settings: Homo sapiens, LoVo, 72 h, LoVo cells, SRB, read-out: In Vitro Cellular Activity IC50 LOVO
Procedure, shortened: (§3)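 Seeding: BT474 12000, HCT-116 4000, LoVo 6000, MCF-7 6000 cells/well; overnight attachment, 37 °C, 7% CO2. Drug exposure 3 d (BT474 6 d), RPMI 1640 + 5% FBS. Readout: TCA fix, 0.4% SRB, Tris solubilisation, A540.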

[5] = system: MCF-7; experiment: Cytotoxicity assay (SRB), MCF-7; type: cell-based; settings: Homo sapiens, MCF7, 72 h, MCF-7 cells, SRB, read-out: In Vitro Cellular Activity IC50 MCF-7
Procedure, shortened: as §3

[6] = system: BT474; experiment: Cytotoxicity assay (SRB), BT474; type: cell-based
Procedure, shortened: as §3

[7] = system: HCT-116; experiment: Cytotoxicity assay (SRB), HCT-116; type: cell-based; settings: Homo sapiens, HCT-116, 72 h, HCT116 cells, SRB, read-out: In Vitro Cellular Activity IC50 HCT116
Procedure, shortened: as §3

[8] = In Vitro Enzyme Assay, cyclin E/CDK2, read-out: CDK2 IC50
[9] = In Vitro Enzyme Assay, cyclin D1/cdk 4, read-out: CDK4 IC50
[10] = In Vitro Enzyme Assay, cyclin B/CDK1, read-out: CDK1 IC50
[11] = In Vitro Enzyme Assays, read-out: CDK2 IC50
[12] = In Vitro Enzyme Assays, 200 μM ATP, read-out: CDK4 IC50
[13] = In Vitro Enzyme Assays, read-out: CDK1 IC50
[14] = Homo sapiens, BT-474, 144 h, BT474 cells, 6 days, SRB; read-out: In Vitro Cellular Activity IC50 BT474

T3 sequence (P06493 whole entry): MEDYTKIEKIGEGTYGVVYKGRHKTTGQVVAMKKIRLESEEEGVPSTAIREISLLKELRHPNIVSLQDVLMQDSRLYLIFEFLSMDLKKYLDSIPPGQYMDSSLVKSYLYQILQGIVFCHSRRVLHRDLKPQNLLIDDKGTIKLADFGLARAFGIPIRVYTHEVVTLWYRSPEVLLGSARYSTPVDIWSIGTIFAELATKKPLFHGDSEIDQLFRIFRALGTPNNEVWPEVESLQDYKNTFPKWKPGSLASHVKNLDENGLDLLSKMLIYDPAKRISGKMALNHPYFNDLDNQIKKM
T3 sequence (P14635 whole entry partner): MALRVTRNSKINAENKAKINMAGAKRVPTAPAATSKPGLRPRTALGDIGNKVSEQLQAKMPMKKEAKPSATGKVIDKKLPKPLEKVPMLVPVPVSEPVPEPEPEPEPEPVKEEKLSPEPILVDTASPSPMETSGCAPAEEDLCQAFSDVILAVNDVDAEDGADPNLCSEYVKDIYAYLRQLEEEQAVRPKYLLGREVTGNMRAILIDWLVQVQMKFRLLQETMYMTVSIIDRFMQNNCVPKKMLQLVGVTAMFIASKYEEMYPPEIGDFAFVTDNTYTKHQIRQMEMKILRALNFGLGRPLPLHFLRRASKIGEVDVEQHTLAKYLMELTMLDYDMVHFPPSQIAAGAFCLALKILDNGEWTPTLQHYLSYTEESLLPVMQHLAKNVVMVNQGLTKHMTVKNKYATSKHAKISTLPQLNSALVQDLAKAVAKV
T2 sequence (P11802 whole entry, species assumed): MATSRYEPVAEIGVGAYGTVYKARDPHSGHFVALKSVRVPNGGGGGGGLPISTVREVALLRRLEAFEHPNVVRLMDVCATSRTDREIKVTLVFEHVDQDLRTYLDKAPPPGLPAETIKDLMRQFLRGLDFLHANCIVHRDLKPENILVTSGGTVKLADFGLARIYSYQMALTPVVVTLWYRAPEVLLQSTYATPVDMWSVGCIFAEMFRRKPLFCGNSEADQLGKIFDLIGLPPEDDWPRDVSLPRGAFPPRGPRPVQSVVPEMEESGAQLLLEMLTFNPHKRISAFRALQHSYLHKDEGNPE
T2 sequence (P24385 whole entry partner, species assumed): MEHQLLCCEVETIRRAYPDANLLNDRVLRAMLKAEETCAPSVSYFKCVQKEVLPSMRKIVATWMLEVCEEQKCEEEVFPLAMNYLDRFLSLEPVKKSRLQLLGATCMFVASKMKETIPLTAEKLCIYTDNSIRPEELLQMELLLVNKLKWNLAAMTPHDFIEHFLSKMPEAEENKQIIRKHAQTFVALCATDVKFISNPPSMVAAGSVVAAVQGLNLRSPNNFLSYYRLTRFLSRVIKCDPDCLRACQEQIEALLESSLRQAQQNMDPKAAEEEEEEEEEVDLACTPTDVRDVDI

IC50 [1, 8]	IC50 [2, 9]	IC50 [3, 10]	IC50 [1, 11]	IC50 [2, 12]	Compound	also measured
15.1 µM	8.2 µM	18.5 µM	–	–	O=C1NC(=O)c2ccccc2C1=CNc1ccc(O)c(C(=O)O)c1 [Example 563, 5-[(1,3-Dioxo-2,3-dihydro-1H-isoquinolin-4-ylidenemethyl)-amino]-2-hydroxy-benzoic acid]	–
13.8 µM	12.8 µM	16.9 µM	–	–	O=C1NC(=O)c2ccccc2C1=CNCC(O)c1ccc(O)c(O)c1 (stereo not drawn) [Example 564, 4-{[2-(3,4-Dihydroxy-phenyl)-2-hydroxy-ethylamino]-methylene}-4H-isoquinoline-1,3-dione]	–
27.7 µM	0.4 µM	> 50 µM	–	–	O=C(O)C=Cc1cccc(-c2ccc3c(c2)C(=CNCc2ccc(O)c(O)c2)C(=O)NC3=O)c1 [Example 789, 3-(3-{4-[(3,4-Dihydroxy-benzylamino)-methylene]-1,3-dioxo-1,2,3,4-tetrahydro-isoquinolin-6-yl}-phenyl)-acrylic acid]	–
27.1 µM	0.81 µM	27.1 µM	–	–	O=C(O)CCc1ccc(-c2ccc3c(c2)C(=CNCc2ccc(O)c(O)c2)C(=O)NC3=O)cc1 [Example 819, 3-(4-{4-[(3,4-Dihydroxy-benzylamino)-methylene]-1,3-dioxo-1,2,3,4-tetrahydro-isoquinolin-6-yl}-phenyl)-propionic acid]	–
17.6 µM	0.2 µM	17.6 µM	–	–	O=C(O)C=Cc1ccc(-c2ccc3c(c2)C(=CNCc2ccc(O)c(O)c2)C(=O)NC3=O)cc1 [Example 788, 3-(4-{4-[(3,4-Dihydroxy-benzylamino)-methylene]-1,3-dioxo-1,2,3,4-tetrahydro-isoquinolin-6-yl}-phenyl)-acrylic acid]	–
–	–	–	36.3 µM	37.1 µM	O=C1NC(=O)c2ccc(Br)cc2C1=CNc1ccc(-c2cccnc2)cc1 [Example 349, 6-Bromo-4-[(4-pyridin-3-yl-phenylamino)-methylene]-4H-isoquinoline-1,3-dione]	IC50 [3, 13]: > 50 µM
23.1 µM	0.19 µM	> 50 µM	–	–	NS(=O)(=O)c1ccc(CNC=C2C(=O)NC(=O)c3ccc(C=Cn4ccnc4)cc32)cc1 [Example 658, 4-({[6-(2-Imidazol-1-yl-vinyl)-1,3-dioxo-2,3-dihydro-1H-isoquinolin-4-ylidenemethyl]-amino}-methyl)-benzenesulfonamide]	–
16.2 µM	11.9 µM	17.7 µM	–	–	O=C1NC(=O)c2ccccc2C1=CNC(Cc1ccc(O)c(O)c1)C(=O)O (stereo not drawn) [Example 567, 3-(3,4-Dihydroxy-phenyl)-2-[(1,3-dioxo-2,3-dihydro-1H-isoquinolin-4-ylidenemethyl)-amino]-propionic acid]	–
–	–	–	7 µM	0.22 µM	Nc1cc(CN/C=C2\C(=O)NC(=O)c3ccc(Br)cc32)cc(O)c1O [Example 204, (4Z)-4-{[(3-Amino-4,5-dihydroxybenzyl)amino]methylene}-6-bromoisoquinoline-1,3(2H,4H)-dione]	IC50 [3, 13]: > 50 µM
–	–	–	> 50 µM	0.04 µM	O=C1NC(=O)c2ccc(Br)cc2/C1=C/NCc1ccc(O)c(O)c1 [Example 40, (4Z)-6-Bromo-4-{[(3,4-dihydroxybenzyl)amino]methylene}isoquinoline-1,3(2H,4H)-dione]	IC50 [3, 13]: > 50 µM
6.6 µM	13.2 µM	> 50 µM	–	–	N=C(N)c1ccc(NC=C2C(=O)NC(=O)c3ccccc32)cc1 [Example 547, 4-[(1,3-Dioxo-2,3-dihydro-1H-isoquinolin-4-ylidenemethyl)-amino]-benzamidine]	–
> 50 µM	0.12 µM	> 50 µM	–	–	CN1CCN(c2ccc(NC=C3C(=O)NC(=O)c4ccc(-c5ccn(CC(N)=O)c5)cc43)cc2)CC1 [Example 853, 2-[3-(4-{[4-(4-Methyl-piperazin-1-yl)-phenylamino]-methylene}-1,3-dioxo-1,2,3,4-tetrahydro-isoquinolin-6-yl)-pyrrol-1-yl]-acetamide]	–
–	–	–	> 50 µM	0.23 µM	COc1ccc(CN/C=C2\C(=O)NC(=O)c3ccc(Cl)cc32)cc1O [Example 67, (4Z)-6-Chloro-4-{[(3-hydroxy-4-methoxybenzyl)amino]methylene}isoquinoline-1,3(2H,4H)-dione]	IC50 [3, 13]: > 50 µM
–	–	–	> 50 µM	0.36 µM	CN1CCN(c2ccc(N/C=C3\C(=O)NC(=O)c4ccc(-c5ccc(C=O)o5)cc43)cc2)CC1 [Example 124, 5-[(4Z)-4-({[4-(4-Methylpiperazin-1-yl)phenyl]amino}methylene)-1,3-dioxo-1,2,3,4-tetrahydroisoquinolin-6-yl]-2-furaldehyde]	IC50 ([4]; three days): 5 µM; IC50 ([5]; three days): 7.9 µM; IC50 ([6]; Homo sapiens, BT-474, 144 h, BT474 cells, SRB, 6 days; read-out: In Vitro Cellular Activity IC50 BT474): 9.1 µM; IC50 ([7]; three days): 2.6 µM
23.1 µM	0.29 µM	–	–	–	N#CCc1ccc(C=Cc2ccc3c(c2)C(=CNCc2ccc(O)c(O)c2)C(=O)NC3=O)cc1 [Example 805, [4-(2-{4-[(3,4-Dihydroxy-benzylamino)-methylene]-1,3-dioxo-1,2,3,4-tetrahydro-isoquinolin-6-yl}-vinyl)-phenyl]-acetonitrile]	IC50 ([4]; 3 days): 36.3 µM; IC50 ([5]; 3 days): 33.9 µM; IC50 [6, 14]: 21.9 µM; IC50 ([7]; 3 days): 13.8 µM
–	–	–	> 50 µM	1.2 µM	CN(C)CCNC(=O)C1CCN(c2ccc(N/C=C3\C(=O)NC(=O)c4ccc(I)cc43)cc2)CC1 [Example 433, N-[2-(Dimethylamino)ethyl]-1-(4-{[(Z)-(6-iodo-1,3-dioxo-2,3-dihydroisoquinolin-4(1H)-ylidene)methyl]amino}phenyl)piperidine-4-carboxamide]	IC50 ([4]; 3 days): 2.8 µM; IC50 ([5]; 3 days): 3.1 µM; IC50 [6, 14]: 4.5 µM; IC50 ([7]; 3 days): 2 µM

Compound	IC50 [1, 8]	IC50 [2, 9]	IC50 [3, 10]	IC50 [1, 11]	IC50 [2, 12]	also measured
(4Z)-6-Bromo-4-{[(3-hydroxy-4-methoxybenzyl)amino)methylene}isoquinoline-1,3(2H,4H-dione [Example 50]	–	–	–	> 50 µM	0.03 µM	IC50 [3, 13]: > 50 µM
